Assay results reported in PMC7865555, “Mechanistic Studies of the Antiallergic Activity of Phyllanthus amarus Schum. & Thonn. and Its Compounds” (Molecules, 2021).
“And” between values parts separate entries of the source, which are not always exact repeats. Identical values can stand only once. Counter-ions that a name gives are not always drawn.

Tests used:
[1] = Cell viability (MTT) assay on RBL-2H3 cells; type: cell-based, rat; settings: rat, RBL-2H3 cells; for viability at 4 h, 2.5 µg/mL: RBL-2H3, 2.5 µg/mL; for viability at 4 h, 5 µg/mL: RBL-2H3, 5 µg/mL; for viability at 4 h, 10 µg/mL: RBL-2H3, 10 µg/mL; for viability at 4 h, 25 µg/mL: RBL-2H3, 25 µg/mL; for viability at 4 h, 50 µg/mL: RBL-2H3, 50 µg/mL; for viability at 4 h, 100 µg/mL: RBL-2H3, 100 µg/mL
Method: (§1) RBL-2H3 cells were obtained from the Japanese Collection of Research Bioresources (JCRB) cell bank with a cell number of JCRB0023. The cells were cultured in enriched media (MEM containing 10% FBS and 1% penicillin-streptomycin (10 000 U/mL)). Once the cells reaching passage 3 (P3) with 80% confluency and showing stable growth and morphology, the cells were used for the bioassays. Only cells from passage 3 (P3) to passage 5 (P5) were used for the bioassays’ studies.
(§2) The cell viability assay was conducted as reported by Shahari, et al.. RBL-2H3 cells were seeded in 96-well plates in 100 µL at the concentration of 5 × 10^5 /mL. […] The cells were incubated for 4 h. 10 µL of MTT (5 mg/mL in PBS buffer) was added to the mixture and was incubated for 4 h at 37 °C. Upon the appearance of purple formazan crystal, the media was removed and 100 µL of DMSO was added to the well plates to dissolve the crystal. After 10 min of shaking the well plates on a shaker, the absorbance was immediately measured using a microplate reader at 570 nm.

RBL-2H3 cell line = experiment: Cell viability (MTT) assay on RBL-2H3 cells; type: cell-based, rat; settings: for Toxicity towards the cell (in words): RBL-2H3, all concentrations tested; for Concentration safe on the cell: RBL-2H3, maintaining approximately 70% cell viability
Method: as §1, §2

[2] = test system: beta-hexosaminidase release from RBL-2H3; experiment: Inhibitory effect on beta-hexosaminidase release from RBL-2H3 (IgE/DNP-BSA); type: cell-based, rat
Method: The bioassay was conducted as reported by Abd Rani, et al.. In the concentration of 2 × 10^5 cells in 400 µL per well, RBL-2H3 cells were seeded and incubated for 2 h. After 2 h, the cells were sensitized with anti-DNP IgE at a concentration of 0.45 µg/mL in 100 µL per well. The cells were incubated overnight until 80% confluent. The cells were washed with 500 µL Siraganian buffer (119 mM of sodium chloride (NaCl), 5 mM of potassium chloride (KCl), 5.6 mM of glucose, 0.4 mM of magnesium chloride (MgCl2), 1 mM of calcium chloride (CaCl2), 25 mM of piperazine-N,N′-bis(2-ethanesulfonic acid) (PIPES), 40 mM of sodium hydroxide (NaOH), 0.1% BSA; pH 7.2) twice before were added with 160 µL of Siraganian buffer and incubated for 10 min. The cells were then treated with different concentrations of test samples in 20 µL. After 10 min of incubation, allergen, DNP-BSA at a concentration of 10 mg/mL were added to the cells. The cells were incubated for another 30 min. The supernatant (50 µL) was transferred into 96-well plates and was added immediately with 50 µL of the substrate ([…] p-nitrophenyl-N-acetyl-β-D-glucosaminide in 0.1 M citrate buffer, pH 4.5). The cells were further incubated for 1 h and the reaction was stopped using a 200 µL stop solution (0.1 M Na2CO3/NaHCO3, pH 10.0). The absorbance was measured using the microplate reader at 405 nm. The percentage of inhibition was measured using Equation (1). Control cell was assumed to have 100% beta-hexosaminidase release with allergen added without any treatment while the normal cell was assumed to have 0% beta-hexosaminidase release with cell without any allergen and treatment added to the well. The blank well consisted of the test sample. Ketotifen fumarate was used as a positive control. (1) Percentage inhibition % = (1− OD test sample−OD blank−OD normal/OD control−OD normal) × 100

[3] = target: T1, Histamine H1 (human) membrane preparation, in CHO-K1 cells (Homo sapiens, UniProt P35367); experiment: Radioligand competition binding assay (3H-mepyramine); settings: for Ki: read-out: Radioassay (Ki)
T1 construct: purchased Perkin Elmer (Waltham, MA, USA); host or cells: CHO-K1 cells (recombinant expression, membrane preparation)
T1 sequence (P35367 whole entry): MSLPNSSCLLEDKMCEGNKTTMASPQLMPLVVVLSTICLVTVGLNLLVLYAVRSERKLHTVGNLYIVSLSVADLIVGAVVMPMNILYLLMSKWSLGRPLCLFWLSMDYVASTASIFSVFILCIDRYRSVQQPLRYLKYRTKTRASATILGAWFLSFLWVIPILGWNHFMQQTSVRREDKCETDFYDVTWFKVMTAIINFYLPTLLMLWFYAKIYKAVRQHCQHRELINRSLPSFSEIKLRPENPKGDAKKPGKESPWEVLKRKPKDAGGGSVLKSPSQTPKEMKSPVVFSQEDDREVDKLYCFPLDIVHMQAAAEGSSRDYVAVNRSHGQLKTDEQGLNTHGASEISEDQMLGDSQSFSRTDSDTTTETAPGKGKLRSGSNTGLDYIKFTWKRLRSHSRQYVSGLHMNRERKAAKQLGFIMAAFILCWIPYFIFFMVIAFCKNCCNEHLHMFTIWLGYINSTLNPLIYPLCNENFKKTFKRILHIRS
Method: In determining the affinity of the ligands toward the receptor, competition radioligand binding was conducted. The assay was conducted by measuring the competition binding between a radioligand with a ligand. The concentration of the radioligand with the presence of the ligand and the receptor was determined by using a liquid scintillation counter. […] The Ki value which also known as the binding affinity of the ligand was determined using GraphPad Prism.
Pyrilamine (Mepyramine), [pyridinyl 5-3H], Membrane Target Systems: Histamine H1 (human) membrane preparation, in CHO-K1 cells, liquid scintillation cocktail (ULTIMA GOLD MV), pico pro vial, and glass fiber (GF) filter were obtained from Perkin Elmer (Waltham, MA, USA).
In preparation for bioassay analysis, 10 mg of test samples were dissolved in 1 mL of DMSO and were treated as the stock sample. […] The working test sample together with its stock sample were kept in 4 °C until further used.
The radioligand assay was conducted as reported by Strakhova and Esbenshade. […] The mixture was immediately added with 200 µL of histamine receptor membrane (5 µg protein/well). The mixture was incubated for an hour at room temperature while shaking on the shaker. After an hour incubation, the mixture was harvested on GF/B uni filter presoaked with 0.5% PEI for 3 min. The GF/B uni filter was rinsed a few times with a wash buffer before being dried for one and a half hours. Once the uni filter was dry, the punched filter was transferred to 4 mL pico pro vial and was soaked with 2 mL of liquid scintillation cocktail. The solution was vortexed for a few seconds before being quantified using the liquid scintillator. Ki value (nmol/L) was obtained by using Equation (3).

[4] = test system: histamine release from RBL-2H3; experiment: Inhibitory effect on histamine release from RBL-2H3 (ELISA); type: cell-based; settings: Rattus norvegicus, mean ± SEM, n = 3, read-out: Inhibitory activity towards histamine release
Method: The bioassay was conducted as reported by Shahari, et al. and Abd Rani, et al.. In 24-well plates, 2 × 10^5 of RBL-2H3 cells were seeded in 400 µL per well. The cells were sensitized with 0.45 µg/mL anti-DNP IgE in 100 µL after two hours of incubation. The cells were incubated overnight until reaching 80% confluency. The cells were washed twice with 500 µL of enriched media before being constituted with 320 µL enriched media. After 10 min of incubation, the cells were treated with 40 µL of different concentration of test compounds and was incubated for another 10 min. The cells were treated with 20 µL of allergen, DNP-BSA (10 mg/mL), and further being incubated for another 30 min. The supernatant obtained was transferred into a microcentrifuge tube, and centrifuged for 20 min at 1000× g at 8 °C. The supernatant was transferred to the Histamine ELISA kit and the histamine quantification was conducted based on the ELISA manufacturer protocol given. The percentage of inhibition was measured using Equation (2). The control cell was assumed to have 100% histamine release with allergen added without any treatment while blank well corresponded to 0% cytokine release. Ketotifen fumarate was used as a positive control. (2) Percentage inhibition % = (1− OD test sample−OD blank/OD control−OD blank) × 100

[5] = Rattus norvegicus, mean ± SEM, n = 3, read-out: Inhibitory activity towards beta-hexosaminidase release
[6] = pH 7.4, 1 h incubation, 3H-mepyramine

Row | SMILES | Ki [3, 6] | viability at 4 h, 2.5 µg/mL [1] | viability at 4 h, 5 µg/mL [1] | viability at 4 h, 10 µg/mL [1] | viability at 4 h, 25 µg/mL [1] | viability at 4 h, 50 µg/mL [1] | viability at 4 h, 100 µg/mL [1] | Toxicity towards the cell (in words) (RBL-2H3 cell line) | inhibition at 10 µg/mL [2, 5] | inhibition at 25 µg/mL [2, 5] | inhibition at 50 µg/mL [2, 5] | Concentration safe on the cell (RBL-2H3 cell line) | inhibition at 5 µg/mL [2, 5] | inhibition at 5 µg/mL [4] | inhibition at 10 µg/mL [4] | inhibition at 25 µg/mL [4] | Inhibition of beta-hexosaminidase release (in words) [2] | inhibition at 2.5 µg/mL [2, 5] | inhibition at 2.5 µg/mL [4] | other results
1 | O=C(O[C@@H]1O[C@@H]2COC(=O)c3cc(O)c(O)c(O)c3-c3c(cc(O)c(O)c3O)C(=O)O[C@H]([C@H]1O)[C@@H]2O)c1cc(O)c(O)c(O)c1 [Corilagin (4), corilagin] | – | 87.1 ± 4.31% | 81.1 ± 14.8% | 93.7 ± 15.4% | 103 ± 12.1% | 104 ± 7.35% | 101 ± 7.2% | not toxic towards the cell | 2.43 ± 3.26% | 5.12 ± 2.09% | 6.68 ± 1.71% | – | – | – | – | – | – | – | – | Affinity towards the H1 receptor (in words) ([3]; competition radioligand assay): did not show any affinity towards the receptor; Radioassay (Ki) [3, 6]: Not converged
2 | CN1CCC(=C2c3ccccc3CC(=O)c3sccc32)CC1 [Ketotifen fumarate, reference compound] | – | 91.9 ± 6.16% | 90.1 ± 3.89% | 86.8 ± 6.47% | 87.4 ± 1.17% | 83.8 ± 4.1% | 28.9 ± 4.87% | – | 22.2 ± 0.75% | 27.4 ± 0.58% | – | below 50 µg/mL | 17.7 ± 1.05% | 3.9 ± 6.8% | 44.7 ± 23% | 58.7 ± 23.2% | – | – | – | –
3 | COC[C@@H](Cc1ccc(OC)c(OC)c1)[C@@H](COC)Cc1ccc(OC)c(OC)c1 [Phyllanthin (1), phyllanthin] | – | 92 ± 1.13% | 76.6 ± 3.77% | 84.3 ± 6.83% | 82.1 ± 4.03% | 74.2 ± 7.99% | 53.5 ± 0.65% | – | 38.4 ± 8.72% | – | – | below 50 µg/mL | 37.9 ± 6.51% | 55.8 ± 19.3% | -11.6 ± 70.8% | – | inhibited the release of beta-hexosaminidase | 26.4 ± 3.18% | -3.05 ± 7.93% | –

The next lines start with results.

Row | Ki [3, 6] | SMILES | viability at 4 h, 2.5 µg/mL [1] | viability at 4 h, 5 µg/mL [1] | viability at 4 h, 10 µg/mL [1] | viability at 4 h, 25 µg/mL [1] | viability at 4 h, 50 µg/mL [1] | viability at 4 h, 100 µg/mL [1] | Toxicity towards the cell (in words) (RBL-2H3 cell line) | inhibition at 10 µg/mL [2, 5] | inhibition at 25 µg/mL [2, 5] | inhibition at 50 µg/mL [2, 5] | Concentration safe on the cell (RBL-2H3 cell line) | inhibition at 5 µg/mL [2, 5] | inhibition at 5 µg/mL [4] | inhibition at 10 µg/mL [4] | inhibition at 25 µg/mL [4] | Inhibition of beta-hexosaminidase release (in words) [2] | inhibition at 2.5 µg/mL [2, 5] | inhibition at 2.5 µg/mL [4] | other results
4 | 0.44 nM and 0.444 nM | COC[C@H](Cc1ccc(OC)c(OC)c1)[C@H](COC)Cc1cc(OC)c2c(c1)OCO2 [Niranthin (3), niranthin] | 104 ± 5.79% | 79.4 ± 8.96% | 96.5 ± 7.33% | 85.4 ± 11.6% | 96.63 ± 0.63% | 86.3 ± 12.4% | not toxic towards the cell | 29.3 ± 5.81% | 31.3 ± 7.43% | 32.1 ± 7.27% | – | – | 34.7 ± 12.2% | 59 ± 22.2% | 41.2 ± 31.2% | inhibited the release of beta-hexosaminidase | – | – | –
5 | 0.04 nM | COC[C@@H]1Cc2cc(OC)c3c(c2[C@H](c2ccc(OC)c(OC)c2)[C@H]1COC)OCO3 [Hypophyllanthin (2), hypophyllanthin] | 93 ± 9.69% | 91 ± 10.4% | 114 ± 8.89% | 62.46 ± 0.56% | 40.6 ± 4.17% | 28.1 ± 4.13% | – | – | – | – | below 25 µg/mL | 32.3 ± 4.51% | 71.2 ± 34.7% | – | – | inhibited the release of beta-hexosaminidase | 32.3 ± 4.99% | 11.9 ± 64.3% | inhibition at 1.25 µg/mL ([2]; Rattus norvegicus, 1.25 µg/mL, mean ± SEM, n = 3, read-out: Inhibitory activity towards beta-hexosaminidase release): 23.9 ± 3.31%; inhibition at 1.25 µg/mL ([4]; 1.25 µg/mL): 16.4 ± 46.6%
